The values below come from patent publication US12060336B1, “(2E)-4-[(4-chlorophenyl)amino]-N-phenyl-2-(phenylimino)-1,3,5-dioxazepine-7-carboxamide as an eco-friendly insecticidal agent against Spodoptera littoralis (boisd.)” (King Faisal University, priority 2023, dated 2024).

Data set [1] has as its system Spodoptera littoralis larvae. The experiment in a line: Insecticidal leaf dip bioassay screening. As to conditions: for Toxicity index %: 72 hours, fenoxycarb's LC50/compound's LC50 * 100; for LC50: Spodoptera littoralis, foliar, 72 h.
Method: Five concentrations (200, 100, 50, 25, 12.5 ppm) were designed for this synthetic compound and the reference fenoxycarb's compound as the dynamic ingredients based on ppm via diluting the commercial formulation.
In this experiment, the synthetic compound was tested for its insecticidal bioactivity using the industry-standard leaf dip bioassay techniques. Preparation of the compound stocks to create 1000 ppm, 0.1 g of compounds 2 were dissolved in five mL of Dimethyl formamide & combined with 5 mL of distilled water. Until usage, the stocks were kept in a refrigerator. The target substance test results were noted & the concentrations needed to destroy 50% (LC50) of S. littoralis larvae were calculated. The target compound was employed in five different concentrations, & 0.1% Tween 80 was employed as a surfactant. Castor bean leaf discs (nine centimeters in diameter) were dipped in the concentration under test for ten seconds, then fed to 2th & 4th larvae, which were roughly the same size and housed in glass jars (five pound). Each action carried out 3 times with ten larvae each. The mortality equalized via Abbott's formula. Calculations of mortality setback line were measurably rummage via probity analysis. Harmfulness index was strongminded via sun equations. The mortality results of larval insect were estimated through employing probit analysis through a statistics (LDP-line) equation which estimate the LC50 values with 95% fiducially limits of lower, upper confidence limit and slope.
In the next data set the test system is aquatic insects. As to conditions: cited from earlier work.
Setting [2] is: read-out: LC50 (mg/L) at 95%, 2nd instar larvae, laboratory strain S. littoralis, after 72 hours of treatment.
[3] abbreviates: read-out: LC50 (mg/L) at 95%, 4th instar larvae, laboratory strain S. littoralis, after 72 hours of treatment.

Each structure is given as a SMILES string. Values after ≈ are worked out from the molar mass of the structure shown. Read-outs that look alike come from different tables or passages of the source.

For `O=C(Nc1ccccc1)C1=CN=C(Nc2ccc(Cl)cc2)O/C(=N/c2ccccc2)O1` [Compound 2, (2E)-4-[(4-chlorophenyl)amino]-N-phenyl-2-(phenylimino)-1,3,5-dioxazepine-7-carboxamide], the “activity against Spodoptera littoralis” value in data set [1] (2nd and 4th instar larvae, FIGS. 1A-1B, compared with Fenoxycarb) is recorded as “active against Spodoptera littoralis”. For the same molecule, the Toxicity index % in data set [1] (2nd instar larvae) was determined as 10.31%; in data set [1] (4th instar larvae), 23.54%. Also, the LC50 in data set [1] (setting [2]) is 57.6 mg/L (≈ 133 µM); in data set [1] (setting [3]) it was roughly 254 mg/L (≈ 588 µM).
For `CCOC(=O)NCCOc1ccc(Oc2ccccc2)cc1` [fenoxycarb, reference compound], the Toxicity index % in data set [1] (2nd instar larvae) and in data set [1] (4th instar larvae) was 100% throughout. Also, the LC50 is 5.94 mg/L (≈ 19.7 µM) in data set [1] (setting [2]) and 59.9 mg/L (≈ 199 µM) in data set [1] (setting [3]).
Turning to `CCc1ccc(C(=O)NN(C(=O)c2cc(C)cc(C)c2)C(C)(C)C)cc1` [tebufenozide], the LC50 in the data set on aquatic insects is 100 to 1000 mg/L.
